Data published in publication PMC3299684, “Two Odorant-Binding Proteins Mediate the Behavioural Response of Aphids to the Alarm Pheromone (E)-ß-farnesene and Structural Analogues” (PLoS ONE, 2012).

Key:
OBP7 [1] = target: T1, OBP7 (Acyrthosiphon pisum, UniProt A0A8R1TDD0); experiment: competitive displacement of 1-NPN fluorescence; type: binding; settings: 50 mM Tris-HCl pH 7.4, 25°C; protein and 1-NPN 2 µM; KD calculated from IC50
T1 construct: gene 100160457; primers encode N-terminus (M)YLSEA, C-terminus EFLPL
T1 sequence (A0A8R1TDD0 31-155): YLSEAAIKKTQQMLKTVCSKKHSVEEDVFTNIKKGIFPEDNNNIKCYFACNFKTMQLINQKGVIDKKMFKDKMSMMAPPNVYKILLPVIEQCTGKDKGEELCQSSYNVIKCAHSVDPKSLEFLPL

OBP3 [2] = target: T2, OBP3 (Acyrthosiphon pisum, UniProt A0A8R1XHB4); experiment: competitive displacement of 1-NPN fluorescence; type: binding; settings: 50 mM Tris-HCl pH 7.4, 25°C; protein and 1-NPN 2 µM; KD calculated from IC50
T2 construct: construct not detailed here
T2 sequence (A0A8R1XHB4 24-141 limits assumed): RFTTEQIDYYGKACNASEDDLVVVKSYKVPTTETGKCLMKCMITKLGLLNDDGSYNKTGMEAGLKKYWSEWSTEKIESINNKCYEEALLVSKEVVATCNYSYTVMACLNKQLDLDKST

OBP6 = target: T3, OBP6 (Acyrthosiphon pisum, UniProt A0A8R1TDN2); experiment: biochemical; parameters: competitive fluorescence binding assay, displacement of 1-NPN (2 uM) from recombinant OBP (2 uM), pH 7.4
T3 sequence (A0A8R1TDN2 1-160): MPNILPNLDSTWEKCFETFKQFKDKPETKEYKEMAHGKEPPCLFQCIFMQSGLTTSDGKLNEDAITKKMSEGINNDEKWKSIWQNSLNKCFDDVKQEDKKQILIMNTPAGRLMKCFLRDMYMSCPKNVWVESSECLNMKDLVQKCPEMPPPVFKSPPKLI
Protocol: The probe was excited at 337 nm and emission spectra were recorded between 380 and 450 nm. […] For determining binding constants, the intensity values corresponding to the maximum of fluorescence emission were plotted against free ligand concentrations. The curves were drawn using the Prism software, that allowed calculation of the dissociation constants and the stoichiometry of binding, assuming that the protein was 100% active. […] Supplementary file pone.0032759.s002.doc: Table S1 Binding properties of the ligands utilised in ligand binding assays and behaviour experiments. For each protein, [IC]50 reports the concentration of ligand that halves the initial fluorescence intensity (both protein and 1-NPN were used at the concentration of 2 µM). Dissociation constants are calculated as reported in the Materials and Methods section. The structures of “CAU” ligands are reported in Table 1, those of “LIG” chemicals in Figure 3. Blank cells indicate values of [IC]50 higher than 30 µM. For these compounds dissociation constants have not been calculated. (DOC) Click here for additional data file.

OBP7 [3] = target: T1, OBP7; experiment: biochemical; parameters: competitive fluorescence binding assay, displacement of 1-NPN (2 uM) from recombinant OBP (2 uM), pH 7.4; settings: for IC50: read-out: [IC]50 OBP7
Protocol: (§1) The probe was excited at 337 nm and emission spectra were recorded between 380 and 450 nm. […] For determining binding constants, the intensity values corresponding to the maximum of fluorescence emission were plotted against free ligand concentrations. The curves were drawn using the Prism software, that allowed calculation of the dissociation constants and the stoichiometry of binding, assuming that the protein was 100% active. […] Supplementary file pone.0032759.s002.doc: Table S1 Binding properties of the ligands utilised in ligand binding assays and behaviour experiments. For each protein, [IC]50 reports the concentration of ligand that halves the initial fluorescence intensity (both protein and 1-NPN were used at the concentration of 2 µM). Dissociation constants are calculated as reported in the Materials and Methods section. The structures of “CAU” ligands are reported in Table 1, those of “LIG” chemicals in Figure 3. […] (DOC) Click here for additional data file.

OBP3 [4] = target: T2, OBP3; parameters: competitive fluorescence binding assay, displacement of 1-NPN (2 uM) from recombinant OBP (2 uM), pH 7.4; settings: binder
Protocol: as §1

Compound: C=CC(=C)CC/C=C(\C)CCC=C(C)C [(E)-ß-farnesene]
- KD (OBP7 [1]): including (E)-ß-farnesene and structurally similar molecules, bind only OBP3 and/or OBP7
- KD (OBP3 [2]): including (E)-ß-farnesene and structurally similar molecules, bind only OBP3 and/or OBP7

Compound: CC(C)CCCC(C)CCOC(=O)c1ccccc1 (centres unmarked) [LIG-4]
- Kd (OBP6): 13.9 µM
- IC50 (OBP6; read-out: [IC]50 OBP6): 16.1 µM
- IC50 (OBP7 [3]): 2.5 µM

Compound: CC(=O)OC/C=C(\C)CCC=C(C)C [LIG-7]
- Kd (OBP7 [3]): 9.3 µM
- IC50 (OBP7 [3]): 18 µM

Compound: CC(C)CCOC(=O)CCCc1ccccc1 [LIG-8]
- Kd (OBP3 [4]): 10.7 µM
- IC50 (OBP3 [4]; read-out: [IC]50 OBP3): 14 µM
- Kd (OBP7 [3]): 2.8 µM
- IC50 (OBP7 [3]): 5.5 µM
